Measured values published in ChEMBL document CHEMBL4190161 (Medchemcomm, 2016).
The source made the active and inactive calls. The calls are words filed in the database; no cut-off is given here. Starred links: 1 amine or outer side, 2 acyl side, 3 side chain; linkers in the order of their positions; H or OH if unused. Residues, ends and D or L forms follow the SMILES beside them. γGlu = O=C(O)[C@H](CCC(=O)[*:2])N[*:1]

Assays:
[1] = Antioxidant activity of the compound in phosphate buffer at pH 7.4 assessed as trolox equivalent of AAPH-induced peroxyl radical scavenging activity at 6 uM pretreated for 2 mins followed by AAPH addition measured at 2 mins interval for 108 minutes by ORAC-FL assay; assay type: functional
[2] = Antioxidant activity assessed as ABTS radical scavenging activity measured within 12 mins by spectrophotometric method; assay type: functional
[3] = Antioxidant activity assessed as DPPH radical scavenging activity incubated for 30 mins under dark condition by spectrophotometric method; assay type: functional
[4] = Metal chelating activity assessed as compound-Fe2+ complex formation
[5] = Antioxidant activity assessed as trolox equivalent of hydroxyl radical scavenging activity up to 25 mg/ml measured after 60 mins by fenton reaction method; assay type: functional
[6] = Antioxidant activity of the compound in phosphate buffer at pH 6.6 assessed as trolox equivalent of potassium ferric cyanide ion reducing activity at 0.4 mM after 20 mins by spectrophotometric method; assay type: functional
[7] = Antioxidant activity of the compound in phosphate buffer at pH 7.4 assessed as trolox equivalent of AAPH-induced peroxyl radical scavenging activity measured at 2 mins interval for 80 minutes by ORAC-FL assay; assay type: functional
[8] = Antioxidant activity of the compound in phosphate buffered saline at pH 7.4 assessed as trolox equivalent of ABTS radical scavenging activity after 6 mins by spectrophotometric method; assay type: functional
[9] = Antioxidant activity assessed as DPPH radical scavenging activity measured after 20 mins by spectrophotometric method; assay type: functional
[10] = Antioxidant activity assessed as DPPH radical scavenging activity measured after 30 mins by spectrophotometric method; assay type: functional

SMILES	Activity (umolequiv/umol) [1]	IC50 [3]	Activity [4]	Activity [5]	Activity (umolequiv/umol) [7]	further results
N[C@@H](Cc1ccc(O)cc1)C(=O)N[C@@H](CCC(=O)O)C(=O)NCC(=O)O (H-Tyr-Glu-Gly-OH)	1.2	78.8 mM	inactive			Activity [2]: Active; Activity (mmolequiv/mmol) [5]: 0.47
N[C@@H](CCC(=O)N[C@@H](CS)C(=O)NCC(=O)O)C(=O)O [GLUTATHIONE]	0.65	0.16 mM	inactive			Activity [2]: Active; Activity (umolequiv/umol) [6]: 50.7
CC(C)[C@H](NC(=O)[C@@H](N)CCCCN)C(=O)N[C@@H](Cc1cnc[nH]1)C(=O)O (H-Lys-Val-His-OH)	0.03	285 mM	inactive	Active		
N[C@@H](Cc1c[nH]cn1)C(=O)O					0.073	
N[C@@H](Cc1ccc(O)cc1)C(=O)O					1.57	
CC(C)C[C@H](NC(=O)[C@H](Cc1cnc[nH]1)NC(=O)[C@@H](N)Cc1ccc(O)cc1)C(=O)O	0.36	99.9 mM	inactive	Active		
N[C@@H](CS)C(=O)O					0.149	
N[C@@H](CCC(=O)N[C@@H](CS)C(=O)N[C@@H](Cc1cnc[nH]1)C(=O)O)C(=O)O (γGlu-Cys-His-OH)						Activity [8]: Active
N[C@@H](Cc1ccccc1)C(=O)O					0.0025	
CSCC[C@H](N)C(=O)O					1.13	
CC(C)C[C@H](NC(=O)[C@H](CCC(=O)O)NC(=O)CN)C(=O)O (H-Gly-Glu-Leu-OH)	-0.1	521 mM	inactive	inactive		
N[C@@H](CCC(=O)O)C(=O)N[C@@H](CS)C(=O)N[C@@H](Cc1cnc[nH]1)C(=O)O (H-Glu-Cys-His-OH)	0.1	0.11 mM	inactive	Active		Activity [2]: Active; Activity [9]: inactive; Activity (umolequiv/umol) [6]: 61.2
O=C(O)CNC(=O)[C@H](CS)NC(=O)[C@@H]1CCCN1 (H-Pro-Cys-Gly-OH)	0.2	0.3 mM	inactive	Active		Activity [8]: Active; Activity [10]: inactive; Activity (umolequiv/umol) [6]: 25.2
CC(C)C[C@H](NC(=O)[C@H](CCCCN)NC(=O)[C@@H](N)Cc1ccccc1)C(=O)O (H-Phe-Lys-Leu-OH)	-0.06	4.2 mM	inactive	Active		Activity (umolequiv/umol) [6]: 20.4
CC(C)C[C@H](N)C(=O)N[C@@H](Cc1cnc[nH]1)C(=O)NCC(=O)O (H-Leu-His-Gly-OH)	-0.48	102 mM	inactive	Active		
CC(C)C[C@H](NC(=O)[C@@H](N)CCCCN)C(=O)N[C@@H](CCC(=O)O)C(=O)O (H-Lys-Leu-Glu-OH)	-0.04	348 mM	inactive	inactive		
